Measurements published in patent US6201129A, “Tricyclic derivatives and their use as anti-cancer agents” (Univ. College Cardiff Consultants, priority 1997, dated 2001).

System: HT1080scc2 (clone of human fibrosarcoma cell-line HT1080)
Test: Cell proliferation/cytotoxicity assay, methylene blue biomass staining
Type: cell-based
Settings: HT-1080, HT1080scc2 cells, 1×10^3 cells per well, compound added day 1, further 4 days at 37° C., methylene blue staining read at 620 nm
Method: Compounds of the general formula (I) have been tested against two specially developed cell lines which are clones of the human fibrosarcoma cell-line HT1080. One clone HT1080scc2, retains the transformed phenotype of the parental line, whilst the other, HT10801c, is a morphologically flat, non-tumourigenic, revertant.
Assays for cell proliferation/cytotoxity were carried out in tissue culture grade 96 well microtitre plates (Costar). Cells in log growth were added to the plates at a concentration of 1×10^3 cells per well on day 0 and serially diluted compounds were then added on day 1. Plates were then incubated at 37° C. in 5% CO2 in air for a further 4 days.
For quantitation of cell growth, the methylene blue biomass staining method was used, the test being read on a Multiscan plate reader at wavelength of 620 nm. The morphology of the cells was checked microscopically under phase-contrast immediately before the fixation and staining with methylene blue, and by ordinary light microscopy thereafter. IC50 values for active compounds were obtained using the computer programme, GS1 and dose-response slopes were also plotted.

`CCOC(=O)c1[nH]c2cc3[nH]c(C)cc3c(C)c2c1C` [Example 2, Ethyl 1,7-dihydro-3,4,6-trimethylpyrrolo[3,2-f]indole-2-carboxylate] gave an IC50 of 3 µM.

Compound `CCOC(=O)c1[nH]c2cc3c(C(=O)OCC)c(C)[nH]c3c(C)c2c1C` [Example 1, Diethyl 1,5-dihydro-3,4,6-trimethylpyrrolo[2,3-f]indole-2,7-dicarboxylate] has an IC50 of 100 µM.
